{
  "source": "PubChem BioAssay (NCI)",
  "test_in_all_cases": "inhibition of tumour cell growth, NCI panel, 48 h",
  "key": {"[1]": {"tested_on": "UACC-257 melanoma"}, "[2]": {"tested_on": "HS 578T breast"}, "[3]": {"tested_on": "SF-295 CNS"}, "[4]": {"tested_on": "A498 renal"}, "[5]": {"tested_on": "OVCAR-8 ovarian"}, "[6]": {"tested_on": "SK-OV-3 ovarian"}, "[7]": {"tested_on": "UO-31 renal"}, "[8]": {"tested_on": "M14 melanoma"}, "[9]": {"tested_on": "HOP-62 NSCLC"}, "[10]": {"tested_on": "SNB-19 CNS"}, "[11]": {"tested_on": "HCC-2998 colon"}, "[12]": {"tested_on": "NCI-H23 lung"}, "[13]": {"tested_on": "PC-3 prostate"}, "[14]": {"tested_on": "SN12C renal"}, "[15]": {"tested_on": "NCI-H226 lung"}, "[16]": {"tested_on": "786-0 renal"}, "[17]": {"tested_on": "HL-60(TB) leukemia"}, "[18]": {"tested_on": "SK-MEL-5 melanoma"}, "[19]": {"tested_on": "NCI-H522 lung"}, "[20]": {"tested_on": "SNB-75 CNS"}, "[21]": {"tested_on": "MDA-N"}, "[22]": {"tested_on": "U251 CNS"}, "[23]": {"tested_on": "SW-620 colon"}, "[24]": {"tested_on": "HT29 colon"}, "[25]": {"tested_on": "SK-MEL-28 melanoma"}, "[26]": {"tested_on": "BT-549 breast"}, "[27]": {"tested_on": "A549 NSCLC"}, "[28]": {"tested_on": "NCI-H460 lung"}, "[29]": {"tested_on": "CAKI-1 renal"}, "[30]": {"tested_on": "SF-539 CNS"}, "[31]": {"tested_on": "HCT-116 colon"}, "[32]": {"tested_on": "OVCAR-5 ovarian"}, "[33]": {"tested_on": "RXF 393 renal"}, "[34]": {"tested_on": "TK-10 renal"}, "[35]": {"tested_on": "K-562 leukemia"}, "[36]": {"tested_on": "SF-268 CNS"}, "[37]": {"tested_on": "MDA-MB-435"}, "[38]": {"tested_on": "MOLT-4 leukemia"}, "[39]": {"tested_on": "KM12 colon"}, "[40]": {"tested_on": "OVCAR-3 ovarian"}, "[41]": {"tested_on": "MCF7 breast"}, "[42]": {"tested_on": "HCT-15 colon"}, "[43]": {"tested_on": "LOX IMVI melanoma"}, "[44]": {"tested_on": "DU-145 prostate"}, "[45]": {"tested_on": "SK-MEL-2 melanoma"}, "[46]": {"tested_on": "T-47D breast"}, "[47]": {"tested_on": "RPMI-8226 leukemia"}, "[48]": {"tested_on": "MDA-MB-231 breast"}, "[49]": {"tested_on": "NCI/ADR-RES ovarian"}, "[50]": {"tested_on": "ACHN renal"}, "[51]": {"tested_on": "CCRF-CEM leukemia"}, "[52]": {"tested_on": "OVCAR-4 ovarian"}, "[53]": {"tested_on": "UACC-62 melanoma"}, "[54]": {"tested_on": "HOP-92 NSCLC"}, "[55]": {"tested_on": "IGROV1 ovarian"}, "[56]": {"tested_on": "EKVX NSCLC"}, "[57]": {"tested_on": "SR leukemia"}, "[58]": {"tested_on": "COLO 205 colon"}},
  "note": "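1) Cells in 96-well plates. 2) Compound, 48 h, 5 concentrations. 3) Linear interpolation between surrounding doses. 4) Unreached endpoint = highest concentration. At the TGI there is no net growth.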",
  "data": [
    {"smiles": "CCc1nc(N)nc(N)c1-c1ccc(Cc2ccccc2)c([N+](=O)[O-])c1", "values": [
      {"measurement": "TGI", "setting": "[1]", "value": "> 71", "unit": "µM"},
      {"measurement": "TGI", "setting": "[2]", "value": "> 67.1", "unit": "µM"},
      {"measurement": "TGI", "setting": "[3]", "value": "> 65.5", "unit": "µM"},
      {"measurement": "TGI", "setting": "[4]", "value": "> 74.2", "unit": "µM"},
      {"measurement": "TGI", "setting": "[5]", "value": "> 62.1", "unit": "µM"},
      {"measurement": "TGI", "setting": "[6]", "value": "> 83.6", "unit": "µM"},
      {"measurement": "TGI", "setting": "[7]", "value": "> 54.5", "unit": "µM"},
      {"measurement": "TGI", "setting": "[8]", "value": "> 84.9", "unit": "µM"},
      {"measurement": "TGI", "setting": "[9]", "value": "> 69.7", "unit": "µM"},
      {"measurement": "TGI", "setting": "[10]", "value": "> 100", "unit": "µM"},
      {"measurement": "TGI", "setting": "[11]", "value": "> 64.6", "unit": "µM"},
      {"measurement": "TGI", "setting": "[12]", "value": "> 60.4", "unit": "µM"},
      {"measurement": "TGI", "setting": "[13]", "value": "> 100", "unit": "µM"},
      {"measurement": "TGI", "setting": "[14]", "value": "> 100", "unit": "µM"},
      {"measurement": "TGI", "setting": "[15]", "value": "> 68.9", "unit": "µM"},
      {"measurement": "TGI", "setting": "[16]", "value": "> 60.7", "unit": "µM"},
      {"measurement": "TGI", "setting": "[17]", "value": "> 53.4", "unit": "µM"},
      {"measurement": "TGI", "setting": "[18]", "value": "> 100", "unit": "µM"},
      {"measurement": "TGI", "setting": "[19]", "value": "> 35.8", "unit": "µM"},
      {"measurement": "TGI", "setting": "[20]", "value": "> 60", "unit": "µM"},
      {"measurement": "TGI", "setting": "[21]", "value": "> 81.8", "unit": "µM"},
      {"measurement": "TGI", "setting": "[22]", "value": "> 65.5", "unit": "µM"},
      {"measurement": "TGI", "setting": "[23]", "value": "> 64.2", "unit": "µM"},
      {"measurement": "TGI", "setting": "[24]", "value": "> 61.5", "unit": "µM"},
      {"measurement": "TGI", "setting": "[25]", "value": "> 100", "unit": "µM"},
      {"measurement": "TGI", "setting": "[26]", "value": "> 65.8", "unit": "µM"},
      {"measurement": "TGI", "setting": "[27]", "value": "> 70.7", "unit": "µM"},
      {"measurement": "TGI", "setting": "[28]", "value": "> 60.8", "unit": "µM"},
      {"measurement": "TGI", "setting": "[29]", "value": "> 100", "unit": "µM"},
      {"measurement": "TGI", "setting": "[30]", "value": "> 62.4", "unit": "µM"},
      {"measurement": "TGI", "setting": "[31]", "value": "> 61.1", "unit": "µM"},
      {"measurement": "TGI", "setting": "[32]", "value": "> 100", "unit": "µM"},
      {"measurement": "TGI", "setting": "[33]", "value": "> 84.3", "unit": "µM"},
      {"measurement": "TGI", "setting": "[34]", "value": "> 71.4", "unit": "µM"},
      {"measurement": "TGI", "setting": "[35]", "value": "> 59.5", "unit": "µM"},
      {"measurement": "TGI", "setting": "[36]", "value": "> 56.2", "unit": "µM"},
      {"measurement": "TGI", "setting": "[37]", "value": "> 100", "unit": "µM"},
      {"measurement": "TGI", "setting": "[38]", "value": "> 63.1", "unit": "µM"},
      {"measurement": "TGI", "setting": "[39]", "value": "> 62.4", "unit": "µM"},
      {"measurement": "TGI", "setting": "[40]", "value": "> 76", "unit": "µM"},
      {"measurement": "TGI", "setting": "[41]", "value": "> 65.1", "unit": "µM"},
      {"measurement": "TGI", "setting": "[42]", "value": "> 59.7", "unit": "µM"},
      {"measurement": "TGI", "setting": "[43]", "value": "> 80.9", "unit": "µM"},
      {"measurement": "TGI", "setting": "[44]", "value": "> 76.3", "unit": "µM"},
      {"measurement": "TGI", "setting": "[45]", "value": "> 100", "unit": "µM"},
      {"measurement": "TGI", "setting": "[46]", "value": "> 85.4", "unit": "µM"},
      {"measurement": "TGI", "setting": "[47]", "value": "> 54.3", "unit": "µM"},
      {"measurement": "TGI", "setting": "[48]", "value": "> 70.8", "unit": "µM"},
      {"measurement": "TGI", "setting": "[49]", "value": "> 62.8", "unit": "µM"},
      {"measurement": "TGI", "setting": "[50]", "value": "> 61.2", "unit": "µM"},
      {"measurement": "TGI", "setting": "[51]", "value": "> 62", "unit": "µM"},
      {"measurement": "TGI", "setting": "[52]", "value": "> 93.3", "unit": "µM"},
      {"measurement": "TGI", "setting": "[53]", "value": "> 65.6", "unit": "µM"},
      {"measurement": "TGI", "setting": "[54]", "value": "> 59.3", "unit": "µM"},
      {"measurement": "TGI", "setting": "[55]", "value": "> 64.2", "unit": "µM"},
      {"measurement": "TGI", "setting": "[56]", "value": "> 58.8", "unit": "µM"},
      {"measurement": "TGI", "setting": "[57]", "value": 6.11, "unit": "µM"},
      {"measurement": "TGI", "setting": "[58]", "value": "> 65.4", "unit": "µM"}
    ]}
  ]
}
